Molecules are shown by their SMILES.

The first assay has as its system morningglory (Ipomoea spp.). Nature of the assay: Test A pre-/postemergence plant response. The class given is in vivo. As to conditions: Preemergence, 125 g ai/ha; 0 to 100 scale, 0 = no effect, 100 = complete control. The method in brief: (§1)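 Injury scores (0, no effect; 100, complete control) come from visual comparison with untreated controls roughly ten days post-treatment. Test chemicals in a surfactant-containing non-phytotoxic solvent were applied as a directed soil spray preemergence and to one- to two-leaf seedlings postemergence.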
`Cc1ccc(F)cc1-n1c(-c2ccccc2)ncc(C(=O)C2=C(O)CCCC2=O)c1=O` [Compound 44]: the “Plant response rating, Morningglory” value was found to be 20.

The assay is the same for the next values; noted with them: Preemergence, 500 g ai/ha; visual injury, 0 to 100 scale (0 no effect, 100 complete control), approx. ten days.
With `Cc1ccc(F)cc1-n1c(-c2ccccc2)ncc(C(=O)C2=C(O)CCCC2=O)c1=O` [Compound 44], the “Plant response rating, Morningglory” value is 70.

The next assay has as its system velvetleaf (Abutilon theophrasti). Nature of the assay: Test A pre-/postemergence plant response. The class given is in vivo. The note with it: Postemergence, 125 g ai/ha; visual injury, 0 to 100 scale (0 no effect, 100 complete control), approx. ten days. The method, boiled down: as §1
As for `Cc1ccc(F)cc1-n1c(-c2ccccc2)ncc(C(=O)C2=C(O)CCCC2=O)c1=O` [Compound 44], the “Velvetleaf plant response rating” value was 100.

Staying with this assay, now noted: Postemergence, 500 g ai/ha; 0 to 100 scale, 0 = no effect, 100 = complete control; approx. ten days.
On to `Cc1ccc(F)cc1-n1c(-c2ccccc2)ncc(C(=O)C2=C(O)CCCC2=O)c1=O` [Compound 44], for which the “Plant response rating, Velvetleaf” value was 100.

The assay is the same for the next values; noted with them: Preemergence, 125 g ai/ha; 0 to 100 scale, 0 = no effect, 100 = complete control.
Consider `Cc1ccc(F)cc1-n1c(-c2ccccc2)ncc(C(=O)C2=C(O)CCCC2=O)c1=O` [Compound 44], for which the “Plant response rating, Velvetleaf” value turned out to be 70.

The assay is the same for the next values; noted with them: Preemergence, 500 g ai/ha; visual injury, 0 to 100 scale (0 no effect, 100 complete control), approx. ten days.
For `Cc1ccc(F)cc1-n1c(-c2ccccc2)ncc(C(=O)C2=C(O)CCCC2=O)c1=O` [Compound 44], the “Plant response rating, Velvetleaf” value amounted to 100.

The subject of another assay is giant foxtail (Setaria faberii). The assay can be described thus: Test A pre-/postemergence plant response. The class given is in vivo. As to conditions: Postemergence, 125 g ai/ha; visual injury, 0 to 100 scale (0 no effect, 100 complete control), approx. ten days. The method, boiled down:
as §1
`Cc1ccc(F)cc1-n1c(-c2ccccc2)ncc(C(=O)C2=C(O)CCCC2=O)c1=O` [Compound 44]: the “Foxtail, Giant plant response rating” value is 80.

The same assay, now with this note: Postemergence, 500 g ai/ha; 0 to 100 scale, 0 = no effect, 100 = complete control; approx. ten days.
Consider `Cc1ccc(F)cc1-n1c(-c2ccccc2)ncc(C(=O)C2=C(O)CCCC2=O)c1=O` [Compound 44], for which the “Plant response rating, Foxtail, Giant” value came to 90.

Staying with this assay, now noted: Preemergence, 125 g ai/ha; 0 to 100 scale, 0 = no effect, 100 = complete control.
Regarding `Cc1ccc(F)cc1-n1c(-c2ccccc2)ncc(C(=O)C2=C(O)CCCC2=O)c1=O` [Compound 44], the “Plant response rating, Foxtail, Giant” value was 30.

The assay is the same for the next values; noted with them: Preemergence, 500 g ai/ha; visual injury, 0 to 100 scale (0 no effect, 100 complete control), approx. ten days.
On to `Cc1ccc(F)cc1-n1c(-c2ccccc2)ncc(C(=O)C2=C(O)CCCC2=O)c1=O` [Compound 44], for which the “Plant response rating, Foxtail, Giant” value is 90.

The subject of the next assay is wheat (Triticum aestivum). The assay can be described thus: Test A pre-/postemergence plant response. The class given is in vivo. The note with it: Postemergence, 125 g ai/ha; visual injury, 0 to 100 scale (0 no effect, 100 complete control), approx. ten days. The method in brief: as §1
In the case of `Cc1ccc(F)cc1-n1c(-c2ccccc2)ncc(C(=O)C2=C(O)CCCC2=O)c1=O` [Compound 44], the “Wheat plant response rating” value is recorded as 0.

The same assay, now with this note: Postemergence, 500 g ai/ha; 0 to 100 scale, 0 = no effect, 100 = complete control; approx. ten days.
For `Cc1ccc(F)cc1-n1c(-c2ccccc2)ncc(C(=O)C2=C(O)CCCC2=O)c1=O` [Compound 44], the “Plant response rating, Wheat” value turned out to be 20.

The assay is the same for the next values; noted with them: Preemergence, 125 g ai/ha; 0 to 100 scale, 0 = no effect, 100 = complete control.
Consider `Cc1ccc(F)cc1-n1c(-c2ccccc2)ncc(C(=O)C2=C(O)CCCC2=O)c1=O` [Compound 44], for which the “Plant response rating, Wheat” value stood at 0.

Staying with this assay, now noted: Preemergence, 500 g ai/ha; visual injury, 0 to 100 scale (0 no effect, 100 complete control), approx. ten days.
Consider `Cc1ccc(F)cc1-n1c(-c2ccccc2)ncc(C(=O)C2=C(O)CCCC2=O)c1=O` [Compound 44], for which the “Plant response rating, Wheat” value is 0.

In a further assay the test system is barnyardgrass (Echinochloa crus-galli). Nature of the assay: Test A pre-/postemergence plant response. The class given is in vivo. As to conditions: Postemergence, 125 g ai/ha; visual injury, 0 to 100 scale (0 no effect, 100 complete control), approx. ten days. The method, boiled down: as §1
As for `Cc1ccc(F)cc1-n1c(-c2ccccc2)ncc(C(=O)C2=C(O)CCCC2=O)c1=O` [Compound 44], the “Barnyardgrass plant response rating” value came out at 90.

Still in this assay, the particulars now being: Postemergence, 500 g ai/ha; 0 to 100 scale, 0 = no effect, 100 = complete control; approx. ten days.
In the case of `Cc1ccc(F)cc1-n1c(-c2ccccc2)ncc(C(=O)C2=C(O)CCCC2=O)c1=O` [Compound 44], the “Plant response rating, Barnyardgrass” value was 100.

Still in this assay, the particulars now being: Preemergence, 125 g ai/ha; 0 to 100 scale, 0 = no effect, 100 = complete control.
Regarding `Cc1ccc(F)cc1-n1c(-c2ccccc2)ncc(C(=O)C2=C(O)CCCC2=O)c1=O` [Compound 44], the “Plant response rating, Barnyardgrass” value is 30.

The assay is the same for the next values; noted with them: Preemergence, 500 g ai/ha; visual injury, 0 to 100 scale (0 no effect, 100 complete control), approx. ten days.
Regarding `Cc1ccc(F)cc1-n1c(-c2ccccc2)ncc(C(=O)C2=C(O)CCCC2=O)c1=O` [Compound 44], the “Plant response rating, Barnyardgrass” value turned out to be 100.

The subject of a further assay is winter barley (Hordeum vulgare). The assay can be described thus: Test B postemergence plant response. The class given is in vivo. As to conditions: Postemergence, 31 g ai/ha; scale 0 to 100 (0 no effect, 100 complete control). The method, boiled down: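 Visual ratings from 0 (no effect) to 100 (complete control), made against controls 13–15 days after treatment, kept in a greenhouse. Compounds were applied postemergence to potted plants at the 1- to 4-leaf stage (2–18 cm).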
With `Cc1ccc(F)cc1-n1c(-c2ccccc2)ncc(C(=O)C2=C(O)CCCC2=O)c1=O` [Compound 44], the “Plant response rating, Barley” value came out at 0.

The assay is the same for the next values; noted with them: Postemergence, 62 g ai/ha; scale 0 (no effect) to 100 (complete control); 13 to 15 days.
`Cc1ccc(F)cc1-n1c(-c2ccccc2)ncc(C(=O)C2=C(O)CCCC2=O)c1=O` [Compound 44]: the “Plant response rating, Barley” value came to 0.

Still in this assay, the particulars now being: Postemergence, 125 g ai/ha; visual rating after 13 to 15 days, scale 0 (no effect) to 100 (complete control).
For `Cc1ccc(F)cc1-n1c(-c2ccccc2)ncc(C(=O)C2=C(O)CCCC2=O)c1=O` [Compound 44], the “Plant response rating, Barley” value turned out to be 5.

The same assay, now with this note: Postemergence, 250 g ai/ha; scale 0 to 100.
Consider `Cc1ccc(F)cc1-n1c(-c2ccccc2)ncc(C(=O)C2=C(O)CCCC2=O)c1=O` [Compound 44], for which the “Barley plant response rating” value turned out to be 15.

Values taken from US8952024B2, “Herbicidal pyrimidone derivatives” (E I du Pont de Nemours and Company, priority 2009, dated 2015).
